From US11813262B2, “Compositions and methods to increase muscular strength” (priority 2017, dated 2023)

Legend:
[1] = system: 3D engineered skeletal muscle tissue from C2Cl2 myoblasts; experiment: Contractility of 3D engineered optogenetic skeletal muscle tissue (displacement of compliant cantilever); type: cell-based, mouse; conditions: for effect on muscle contraction of 3D muscle: other actin disrupters
Description: An in vitro optogenetic skeletal muscle micro-tissue as a model system (e.g., engineered skeletal muscle) such as the one shown in FIG. 1A-1E was used. Briefly, a sacrificial molding technique was used to form the muscle tissue on the cantilevers. A steel rod was used to mold a cylindrical hole in solidified gelatin. The steel rod was then removed and myoblasts in an extracellular matrix material was inserted in its place. The myoblasts were then differentiated in place to form a differentiated muscle tissue. With this system, a range of actin inhibitors were tested (e.g., Cytochalasin D (Zygosporin A), Latrunculin A, SMIFH2, CK666 and Jasplakinode) including ones that bind to the barbed end of F-actin, ones that sequester G-actin monomers and inhibitors of formins, roughly a 100% increase in muscle strength was observed (FIGS. 2A-2B and FIGS. 3A-3B) and a 300% increase in external work performed was observed, within 2 hours of F-actin disruption. Additionally, disruption of the dynamic F-actin cytoskeleton using small molecule actin dynamics inhibitors led to a persistent 2-fold improvement in force (e.g., muscle performance or work) compared to exercising (FIG. 4A-4E). Actin disruption improved mouse muscle explant force, a model system that is very close to human muscle (FIG. 5A-5C).
(§1) Fabrication of a 3D engineered skeletal muscle tissue by differentiating C2Cl2 myoblasts mixed in a fibrin/matrigel extracellular matrix cast in to a muscle-like cylindrical shape using a sacrificial molding technique. The muscle tissue is anchored to a stiff cantilever and a more compliant cantilever. Optogenetic stimulation of the muscle tissue lead to muscle contraction which was quantified through measurable displacements of the compliant cantilever. ZygoA treatment of the 3D muscle tissues lead to a significant improvement in contraction relative to DMSO treated controls, reaching ˜2-fold increase in 2 hours.

[2] = system: mouse hindlimb extensor digitorum longus (EDL) muscle explant; experiment: Contractility of mouse hindlimb EDL muscle explant on cantilevers under electrical stimulation
Description: The hindlimb extensor digitorum longus (EDL) muscle of a euthanized 2-3 month old male mouse was dissected. The EDL muscle was anchored between two kapton cantilevers using a cyanoacrylate glue. One of the cantilevers was movable whose position could be adjusted to change the resting tension of the muscle. The cantilever was moved to the point where maximal force was produced and was held at this point for the rest of the experiment. (FIG. 7A-7B).
The two colored envelopes around the curves representing the mean are the 68% and 95% confidence interval envelopes (FIG. 7D). ZygoA treated tissues that responded the best, with an average of ˜2× transient increase in contraction after treatment, followed by decline (FIG. 7E). […] Modeling the decline associated with rigor mortis as an exponential decay estimated the “true” strength change after treatment. The muscle strength was compared of tissue after treatment extrapolated to time t=0 and represent this as a strength ratio relative to the actual strength at t=0. ZygoA treated tissues show a ˜2.5-fold increase in median strength ratio relative to DMSO treated controls.

F-actin [3] = experiment: Phalloidin stain of F-actin in mouse EDL muscle explants; conditions: 3 uM, 2 hours of treatment, vs DMSO
F-actin [4] = experiment: Live confocal time-lapse microscopy of Sir-Actin stained myotubes; type: cell-based; conditions: 0.3 uM
Protocol: However, some of the background non-sarcomeric F-actin was depolymerized as also quantified in (FIG. 10D). Myotubes with an immature sarcomeric structure were depolymerized ˜5 hours after ZygoA treatment (FIG. 10C). Poorly differentiated, myotubes without visible sarcomeric structures had rupturing F-actin cables and significant actin upon actin disruption with ZygoA. […] Sir-Actin intensity before and 12 hours after treatment along sarcomeric F-actin in mature myotubes (FIG. 10D-10E).

[5] = system: differentiated C2Cl2 myotubes; experiment: Active contraction of differentiated optogenetic C2Cl2 myotubes (Index of Movement); type: cell-based, mouse
Description: as §1

F-actin [6] = experiment: Fluorescence recovery after photobleaching of GFP-tagged G-actin in C2Cl2 myotubes; type: cell-based, mouse
Description: The fluorescence recovery in differentiated myotubes was affected by 3 different events: diffusion, dynamic F-actin turnover and stable F-actin turnover. DMSO treated tissues recovered faster than ZygoA treated tissues. […] These myotubes were excluded from the computation. Fluorescence recovery at different timescales (seconds, minutes, tens of minutes) reflected different molecular processes (diffusion of monomer, dynamic F-actin turnover, stable F-actin turnover). […] Changes in dynamic and stable F-actin fractions were statistically significant (FIG. 11D-11E).

[7] = poorly differentiated myotubes without visible sarcomeric structures

C/C1=C/C(=O)O[C@@H]2C[C@@H](CC[C@H](C)/C=C\C=C\CC1)O[C@@](O)([C@@H]1CSC(=O)N1)C2 [Latrunculin A]
effect on muscle contraction of 3D muscle [1]: improved muscle contraction

O=C1NC(=S)N(c2cccc(Br)c2)C(=O)C1=Cc1ccco1 [SMIFH2, 1-(3-Bromophenyl)-5-(2-furylmethylene)-2-thioxo-hexahydropyrimidine-4,6-dione]
effect on muscle contraction of 3D muscle [1]: improved muscle contraction

C=C1[C@@H](C)[C@H]2[C@H](Cc3ccccc3)NC(=O)[C@]23[C@H](OC(C)=O)/C=C/[C@@](C)(O)C(=O)[C@@H](C)C/C=C/[C@H]3[C@@H]1O [ZygoA, Zygosporin A]
transient increase in contraction after treatment ([2]; ZygoA treated tissues that responded the best, average, treatment at t=60 mins): ~2 × | increase in median strength ratio relative to DMSO treated controls ([2]; strength after treatment extrapolated to t=0 (exponential decay model of rigor mortis) relative to actual strength at t=0): ~2.5 fold | contractility changes of treated tissues vs DMSO ([2]; treatment at t=60 mins, before rigor mortis decline): transient improvement | F-actin disruption in muscle explants (phalloidin stain) (F-actin [3]): disrupted F-actin | longer term effect on active contraction ([1]; 0.3 μM, long term (1 day)): no significant effect | muscle contraction after pulsed treatment compared to DMSO treated controls ([1]; 3 uM for 2 hours followed by washout, days after washout): sustained improvement in muscle contraction | short term increase in force (active contraction) ([1]; 3 μM, 2 hours of exposure): 2.6 × | decrease in contraction compared to the peak achieved 2 hours after exposure ([1]; 3 μM, longer term (1 day)): ~50% | increase in contraction relative to DMSO treated controls ([1]; 3D muscle tissues, in 2 hours): ~2 fold | effect of washout on contraction ([1]; washout of high dose 3 uM): recovery of the force to the level of the peak | effect of washout on contraction ([1]; washout of low dose 0.3 uM): slight decrease in contraction (not significant) | time to depolymerization of myotubes with immature sarcomeric structure (F-actin [4]): ~5 h | sarcomeric F-actin structure in mature myotubes after treatment (F-actin [4]; 12 hours after treatment, mature sarcomeric structure): still displayed the periodic sarcomeric structure | average F-actin filament length (F-actin [4]; [7]): decrease in the average F-actin filament length | number of F-actin filaments (F-actin [4]; [7]): increase in number of F-actin filaments | active contraction (Index of Movement, active contractile displacement) [5]: significant improvement in active contraction | actin turnover time (F-actin [6]; FRAP, vs DMSO): slowed the actin turnover time in a dose-dependent manner | amount of stable F-actin (F-actin [6]; higher dose 3 uM): reduces the amount of stable F-actin | amount of dynamic F-actin (F-actin [6]; low dose 0.3 uM): reduced the amount of dynamic F-actin

C/C1=C\[C@H](C)C[C@H](C)OC(=O)C[C@H](c2ccc(O)cc2)NC(=O)[C@@H](Cc2c(Br)[nH]c3ccccc23)N(C)C(=O)[C@H](C)NC(=O)[C@@H](C)C1 [jasplakinolide]
active contractility after F-actin stabilization [1]: gradual decrease in active contractility
